# What was measured:
# Type in all cases: cell-based, human
# [1] = system: intracellular GSH in neuroblastoma cells; experiment: Cellular glutathione level, luminescence GSH-Glo assay
# Method: Cells treated with SsnB or DMSO were washed and re-suspended in PBS and the intracellular GSH level was measured by luminescence based GSH-Glo glutathione assay kit (Promega, Madison, Wis.) following manufacturer's protocol. The luminescence was monitored in a luminometer (Promega Biosystems, Sunnyvale, Calif.).
# At the cellular level, reduced glutathione (GSH) protects cells from oxidative damage resulted from increased superoxides, peroxides and free radicals. Since SsnB induces oxidative stress, SsnB affect of intracellular levels of GSH in neuroblastoma cells was examined. After treatment with SsnB for 2 days (SH-SY5Y and IMR-32), 3 days (NGP cells) or 4 days (SKNF-1 and SK-N-BE(2) cells), the cellular GSH level was measured by luminescence based glutathione assay kit.
# IMR-32 cells = experiment: Cell cycle analysis by flow cytometry (propidium iodide); details: SsnB 10 μM, 2 days; control=19.25%
# Method: (§1) The cell cycle progression was determined by flow cytometer analysis. Neuroblastoma cells were treated with SsnB or DMSO in DMEM with 10% FBS. Cells were collected after trypsinization with trypsin-EDTA solution (Atlanta Biologicals) and washed with 1× phosphate buffered saline (PBS). Approximately 1×10^6 cells were suspended in 300 μl of ice-cold 1×PBS, fixed by adding 700 μl of chilled absolute ethanol (to make final ethanol concentration 70%) drop wise and incubated for overnight at −20° C. Cells were pelleted at 1000×rpm for 5 min at 4° C., washed with 1×PBS for 3 times and stained with propidium iodide (Sigma-Aldrich, St. Louis, Mo.) by adding 1 ml of propidium iodide staining solution (containing 20 μg/ml propidium iodide and 10 μg/ml DNase-free RNase A in 0.1% Triton X-100/PBS) for 1 h on ice in dark. Samples were subjected to fluorescence-activated cell sorting analyses utilizing Beckman Coulter flow cytometer (Beckman Coulter, Indianapolis, Ind.). A minimum of 10,000 events were analyzed in each experiment.
# (§2) To test whether SsnB-induced cell growth inhibition occurs through cell cycle arrest, cell cycle distribution was analyzed by flow cytometry after DNA staining with propidium iodide.
# NGP cells = experiment: as above; details: SsnB 10 μM, 3 days; control=17.87%
# Method: as §1, §2
# SKNF-1 cells = experiment: as above; details: SsnB 10 μM, 4 days; control=14.53%
# Method: as §1, §2
# SH-SY5Y cells = experiment: as above; details: SsnB 10 μM, 2 days; control=14.33%
# Method: as §1, §2
# SK-N-BE(2) cells = experiment: as above; details: SsnB 10 μM, 4 days; control=22.63%
# Method: as §1, §2
# [2] = system: caspase-3 in neuroblastoma cells; experiment: Cleaved caspase-3 by immunofluorescence and Western blotting
# Method: For immunofluorescence staining, cells grown in Lab-TekII chamber slides (Fisher Scientific, Pittsburgh, Pa.) were treated with SsnB in complete culture medium. After treatments, cells were washed with 1×PBS, fixed with 4% paraformaldehyde/PBS for 20 min, and permeabilized with 0.2% Triton X-100/PBS for 10 min at room temperature. Cells were washed with 1×PBS for 3 times and blocked with 5% immunoglobulin (IgG) free-bovine serum albumin (BSA; Jackson ImmunoResearch Laboratories, West Grove, Pa.) in 1×PBS for overnight at 4° C. Cells were incubated with antibody raised against active form of caspase-3 (Cell Signaling Technology, Danvers, Mass.) diluted in 2.5% BSA/PBS for overnight at 4° C. Primary antibodies were detected with secondary antibodies conjugated with fluorescein isothiocyanate (FITC; Santa Cruz Biotechnology, Dallas, Tex.) for 2 h at room temperature. After washing with 1×PBS, cells were mounted with antifade Vectashield mounting media (Vector Laboratories, Burlingame, Calif.), and signals were visualized under Nikon-E600 fluorescence microscope. Nuclei were counterstained with 4′,6-diamidino-2-phenylindole (DAPI; Sigma).
# After treatment with SsnB, cells were collected, washed with 1×PBS, and lysed with 1× cell lysis buffer (Cell Signaling Technology, Danvers, Mass.) containing phenylmethylsulfonyl fluoride (PMSF) and protease inhibitors (aprotinin and leupeptin) for 30 min on ice, and centrifuged at 12000×rpm for 10 min at 4° C. Supernatant (total cell protein) was collected and stored at −80° C. Protein concentration was determined by bicinchoninic acid method using BCA protein assay kit (Pierce/ThermoScientific, Waltham, Mass.). Equal amount of proteins were diluted with 5× Laemmli samples loading buffer and boiled for five minutes. The proteins were subjected to sodium dodecyl sulfate (SDS)-polyacrylamide gel electrophoresis and analyzed by Western blots. Briefly, after electrophoresis, proteins were transferred on polyvinylidene difluoride (PVDF) membrane at 100 volt for 3 h in cold room. Membrane was blocked with 5% non-fat dry milk/TBST (20 mM Tris-Cl, pH 7.4; 150 mM NaCl with 0.1% Tween-20) for 4 h at room temperature followed by incubation in primary antibodies diluted in 2.5% non-fat dry milk/TBST for overnight at 4° C. After washing with TBST, membrane was incubated with secondary antibodies (horseradish peroxidase-conjugated goat anti-rabbit or goat anti-mouse IgG; Santa Cruz Biotechnology, Dallas, Tex.) diluted in 2.5% non-fat dry milk/TBST for 3 h at room temperature. Signals were detected by chemiluminiscence detection kit (Pierce/Thermo Fisher Scientific, Rockford, Ill.). Primary antibodies used were cleaved caspase-3 and β-actin (Cell Signaling Technology), N-myc and p53 (Santa Cruz Biotechnology).
# At cellular level, mitochondria- or receptor (Fas/FasL)-mediated pathways activate caspase signaling cascade which in turn induces DNA damage and initiates programmed cell death (apoptosis). To determine whether SsnB-induced cell death is mediated by caspase activation, Western blotting as well as immunofluorescence assay were performed to detect the active form of caspase-3 in neuroblastoma cells treated with SsnB for 2 days (SH-SY5Y and IMR-32 cells), 3 days (NGP cells) or 4 days (SKNF-1 and SK-N-BE(2) cells). The number of cleaved caspase-3 positive cells were quantitated by ImageJ programme and plotted. […]
smiles,measurement,setting,value
"O=c1occ2c3c(ccc(O)c13)Oc1ccc(O)cc1-2 [SsnB, 8,5′-dihydroxy-4-phenyl-5,2′-oxidoisocoumarin]",cellular GSH level,[1]; SsnB 1 μM,slightly higher or equal to control levels
same,cellular GSH level,"[1]; SsnB 10 μM, 2, 3 or 4 days depending on line, p<0.05",~40 % of control
same,G2/M phase cells,IMR-32 cells,23.45%
same,G2/M phase cells,NGP cells,26.98%
same,G2/M phase cells,SKNF-1 cells,20.91%
same,G2/M phase cells,SH-SY5Y cells,23.98%
same,G2/M phase cells,SK-N-BE(2) cells,27.15%
same,"cleaved caspase-3 level, Western blot","[2]; SsnB 1 μM, nonsignificant vs control",almost undetectable levels
same,"cleaved caspase-3 protein bands (17 and 19 kDa), Western blot",[2]; SsnB 10 μM,present
same,cleaved caspase-3 positive cells (immunofluorescence),[2]; SsnB 10 μM vs DMSO or SsnB 1 μM,significantly increased
same,exposure time at which caspase-3 cleavage is seen,"[2]; SsnB 10 μM, SH-SY5Y cells, time points 6, 12, 24, 48 h",≤ 6 h
